pKd: −log10 of the molar value.
Target: T1, ovalbumin (OVA) (Gallus gallus, UniProt P01012)
T1 construct: gene SERPINB14; amine-coupled to CM5 chip
T1 sequence (P01012 2-386): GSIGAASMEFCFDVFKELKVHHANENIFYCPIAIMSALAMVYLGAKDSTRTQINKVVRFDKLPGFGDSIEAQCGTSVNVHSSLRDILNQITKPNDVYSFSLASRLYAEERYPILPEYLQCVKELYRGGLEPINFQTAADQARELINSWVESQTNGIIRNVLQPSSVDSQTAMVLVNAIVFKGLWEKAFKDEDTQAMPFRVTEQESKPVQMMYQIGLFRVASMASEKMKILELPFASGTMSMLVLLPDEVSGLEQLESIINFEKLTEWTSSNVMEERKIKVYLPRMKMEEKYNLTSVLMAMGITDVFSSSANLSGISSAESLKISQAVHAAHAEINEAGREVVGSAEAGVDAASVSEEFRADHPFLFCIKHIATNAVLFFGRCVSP
Assay: SPR, Biacore […]
Assay type: binding

**Q.** `CCCCCCCCCCCCCCCCCCCCCC(=O)OC[C@H]1O[C@H](O[C@H]2O[C@H](COC(=O)CCCCCCCCCCCCCCCCCCCCC)[C@@H](O)[C@H](O)[C@H]2O)[C@H](O)[C@@H](O)[C@@H]1O` [TDB] was tested. Which pKd did it give?
**A.** Its pKd is 9.63.

From article PMC5872666, “Stimulation of Dectin-1 and Dectin-2 during Parenteral Immunization, but Not Mincle, Induces Secretory IgA in Intestinal Mucosa” (Journal of Immunology Research, 2018)
